Results from PMC10487316, “A high‐throughput microfluidic mechanoporation platform to enable intracellular delivery of cyclic peptides in cell‐based assays” (Bioengineering & Translational Medicine, 2023).
Where a SMILES comes first, the peptide text is derived from it. Bridges are numbered along the chain shown (N, C = ends). [ ]: non-standard residue; d: D form. Lys(N3) = [N-]=[N+]=NCCCC[C@H](N)C(=O)O; R8 = C=CCCCCCC[C@@](C)(N)C(=O)O; Cba = N[C@@H](CC1CCC1)C(=O)O; S5 = C=CCCC[C@](C)(N)C(=O)O; βAla = NCCC(=O)O

Assays:
[1] = target: T1, MDM2 (1–125) protein (Homo sapiens, UniProt Q00987); experiment: MDM2 binding assay (fluorescence anisotropy competition); conditions: competition vs 50 nM FAM-labeled 12/1 peptide, 250 nM MDM2; heat map of Figure 5a
T1 construct: made in house
Experimental: MDM2 protein generation and binding studies were performed as described.[17] […] The competing molecules were then titrated against the complex of the FAM‐labeled peptide and protein. Curve‐fitting was carried out using Prism 4.0 (GraphPad) to determine K D values. Readings were carried out with an Envision Multilabel Reader (PerkinElmer). […] All titrations were carried out in triplicate.

[2] = system: CellSensor p53RE-bla HCT116 cell line (p53 response element reporter); experiment: HCT116 p53 β-lactamase reporter gene functional assay; assay type: cell-based, human; conditions: for p53 activation at 10 μM with and without DμVS: 10 μM peptide, unprocessed vs DμVS-processed cells
Experimental: The CellSensor™ p53RE‐bla HCT116 cell line (K1640, Thermo Scientific) was used for functional characterization of p53 pathway activation by DμVS‐delivered peptides. Assay was performed similarly to how previously described.[17] These cells harbor a stable integration of a β‐lactamase reporter gene under control of the p53 response element. Cells were maintained in McCoy's 5A medium (16600‐082, Invitrogen) with 10% dialyzed FBS (26400‐036, Invitrogen), blasticidin (R210‐01, Invitrogen), and penicillin/streptomycin according to the manufacturer's protocol. Peptides were synthesized as previously described.[16], [17] To set up the assay, peptides were first pre‐plated in assay medium (Opti‐MEM supplemented with 0.1 mM non‐essential amino acids [11140‐050, Invitrogen], 1 mM sodium pyruvate [11360‐070, Invitrogen], and penicillin/streptomycin) without FBS on 384‐well plates (Corning 3764) or 96‐well plates (Corning 3603) using a HP D300E digital dispenser (20 μl 384‐well, 50 μl 96‐well). Maximum DMSO concentration used was 0.3% v/v. Cells were washed, resuspended with 0.05% v/v trypsin, spun down for 5 min at 300× g, and resuspended in PBS. Cells were 70‐μm strained and then brought to a final cell density of 3 × 10^6 cells/ml in PBS. Cell suspension was connected to 15 mL P‐CAP of the DμVS system, and 2 mL were used to prime the system. DμVS process was then initiated at 120 psi and 20 μL (384‐well) or 50 μL (96‐well) were dispensed to microplate in wells that were pre‐defined in the Telios software and pre‐loaded with peptides 2× in assay medium. Unprocessed cells were added to the microplate in parallel. After DμVS processing/mixing with peptide, cells were incubated at 37°C for 4 h. β‐lactamase activity was detected using the ToxBLAzer loading kit (K1095, Invitrogen) according to the manufacturer's protocol. Plates were measured using the PHERAstar FSX microplate reader with a LiveBlazer optic module (1400‐G3M‐FI‐410‐530‐460, BMG Labtech). Maximum p53 activity was defined as the β‐lactamase activity induced by 30 μM MP‐081 (meanpos). Percent activation of individual samples (S) was calculated using the following equation, where meanveh represents the mean of vehicle controls: % activation=S−meanveh/meanpos−meanveh×100
Z‐factors were calculated using the formula: Z^′=1−3σpos+3σveh/meanpos−meanveh
Meanpos and σ pos represent the mean and standard deviation, respectively, of the raw ratiometric values for 30 μM MP‐081 and meanveh and σ veh represent the mean and standard deviation of the vehicle controls. Dose–response data EC50 values were determined using the “[Agonist] versus response—Variable slope (four parameters)” algorithm in GraphPad Prism. Single concentration data for expanded peptide set were analyzed using unpaired T‐tests with false discovery rate (FDR, 1.00%) multiple comparisons correction using the two‐stage step‐up (Benjamini, Krieger, and Yekutieli) method. Data were accumulated from at least five independent experimental runs.

T1 sequence (Q00987 1-125): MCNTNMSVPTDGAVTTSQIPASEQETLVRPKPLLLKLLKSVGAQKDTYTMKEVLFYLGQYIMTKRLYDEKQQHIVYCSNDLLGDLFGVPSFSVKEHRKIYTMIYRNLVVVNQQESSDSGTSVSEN

Compound	Kd [1] [nM]	EC50 ([2]; DμVS-based assay format, expanded peptide set, read-out: DμVS-p53 reporter EC50 (validated hits, dose response)) [nM]	p53 activation at 10 μM with and without DμVS [2]
Ac-LTFEEYWAQLTS-NH2 [MP-190]	17	–	–
CC(=O)N[C@@H](C(=O)N[C@H](C)C(=O)N[C@H](Cc1c[nH]c2ccccc12)C(=O)N[C@H](Cc1ccc(O)cc1)C(=O)N[C@H](C)C(=O)N[C@H](CC(N)=O)C(=O)N[C@H](Cc1ccccc1)C(=O)N[C@H](CCC(=O)O)C(=O)N[C@H](CCCCN)C(=O)N[C@H](CC(C)C)C(=O)N[C@H](CC(C)C)C(=O)N[C@H](CCCNC(=N)N)C(N)=O)[C@H](C)O [MP-183, Ac-DThr-DAla-DTrp-DTyr-DAla-DAsn-DPhe-DGlu-DLys-DLeu-DLeu-DArg-NH2] (Ac-[dT][dA][dW][dY][dA][dN][dF][dE][dK][dL][dL][dR]-NH2)	–	–	lack of activity
CC(C)C[C@@H](NC(=O)[C@@H](CC(C)C)NC(=O)[C@@H](CCCCN)NC(=O)[C@@H](CCC(=O)O)NC(=O)[C@@H](Cc1ccccc1)NC(=O)[C@@H](CC(N)=O)NC(=O)[C@@H](C)NC(=O)[C@@H](Cc1ccc(O)cc1)NC(=O)[C@@H](Cc1c[nH]c2ccccc12)NC(=O)[C@@H](C)NC(=O)[C@H](N)[C@H](C)O)C(=O)N[C@H](CCCNC(=N)N)C(N)=O [MP-182, H-DThr-DAla-DTrp-DTyr-DAla-DAsn-DPhe-DGlu-DLys-DLeu-DLeu-DArg-NH2] (H-[dT][dA][dW][dY][dA][dN][dF][dE][dK][dL][dL][dR]-NH2)	–	–	lack of activity
CC(=O)N[C@H](CC(C)C)C(=O)N[C@H](C(=O)N[C@@H](Cc1ccccc1)C(=O)N[C@@H](CCC(=O)O)C(=O)N[C@@H](CCC(=O)O)C(=O)N[C@@H](Cc1ccc(O)cc1)C(=O)N[C@@H](Cc1c[nH]c2ccccc12)C(=O)N[C@@H](C)C(=O)N[C@@H](CCC(N)=O)C(=O)N[C@@H](CC(C)C)C(=O)N[C@H](C(=O)N[C@@H](CO)C(N)=O)[C@@H](C)O)[C@@H](C)O [MP-191] (Ac-[dL]TFEEYWAQLTS-NH2)	27	–	–
CC(C)C[C@@H]1NC(=O)[C@H](C)NC(=O)[C@H](Cc2c[nH]c3ccccc23)NC(=O)[C@H](Cc2ccc(O)cc2)NC(=O)[C@H](CCC(=O)O)NC(=O)[C@](C)(NC(=O)[C@H](Cc2ccccc2)NC(=O)[C@H](CO)NC(=O)[C@@H](NC(=O)[C@H](CO)NC(=O)CNC(=O)[C@H](CO)NC(=O)[C@H](CCCCN=[N+]=[N-])NC(=O)[C@H](CCC(=O)O)NC(=O)[C@@H](N)CCC(=O)O)[C@@H](C)O)CCCCCCC=CCCC[C@@](C)(C(N)=O)NC(=O)[C@H](CC(C)C)NC1=O [MP-181, H-Glu-Glu-Lys(N3)-Ser-Gly-Ser-Thr-Ser-Phe-R8*-Glu-Tyr-Trp-Ala-Leu-Leu-S5*-NH2] (H-EE[Lys(N3)]SGSTSF[R8]EYWALL[S5]-NH2; staple 10-17)	17	–	–
CC(=O)N[C@@H](CC(C)C)C(=O)N[C@H](C(=O)N[C@H](Cc1ccccc1)C(=O)N[C@]1(C)CCCCCCC=CCCC[C@@](C)(C(=O)N[C@@H](C)C(=O)N[C@@H](C)C(=O)N[C@@H](C)C(=O)N[C@@H](C)C(=O)N[C@@H](C)C(=O)N[C@H](C)C(N)=O)NC(=O)[C@H](CC(C)C)NC(=O)[C@H](CCC(N)=O)NC(=O)[C@H](C)NC(=O)[C@H](Cc2c[nH]c3ccccc23)NC(=O)[C@H](Cc2ccc(O)cc2)NC(=O)[C@H](CCC(=O)O)NC1=O)[C@@H](C)O [MP-990, Ac-Leu-Thr-DPhe-R8*-Glu-Tyr-Trp-Ala-Gln-Leu-S5*-Ala-Ala-Ala-Ala-Ala-DAla-NH2] (Ac-LT[dF][R8]EYWAQL[S5]AAAAA[dA]-NH2; staple 4-11)	–	–	no activity in either format
CC(=O)N[C@H](C(=O)N[C@@H](CO)C(=O)N[C@@](C)(Cc1ccccc1)C(=O)N[C@]1(C)CCCCCCC=CCCC[C@@](C)(C(N)=O)NC(=O)[C@H](CC(C)C)NC(=O)[C@H](CC(C)C)NC(=O)[C@H](C)NC(=O)[C@H](Cc2c[nH]c3ccccc23)NC(=O)[C@H](Cc2ccc(O)cc2)NC(=O)[C@H](CCC(=O)O)NC1=O)[C@@H](C)O [MP-159, Ac-Thr-Ser-(ɑ-Me-Phe)-R8*-Glu-Tyr-Trp-Ala-Leu-Leu-S5*-NH2]	15	–	–

The next lines start with results.

Kd [1] [nM]	EC50 ([2]; DμVS-based assay format, expanded peptide set, read-out: DμVS-p53 reporter EC50 (validated hits, dose response)) [nM]	Compound	p53 activation at 10 μM with and without DμVS [2]
–	1000	H-Lys(N3)-betaAla-Leu-Thr-Phe-R8*-Glu-Tyr-Trp-Ala-Gln-Cba-S5*-Ser-Ala-Ala-Lys(mPEG24)-NH2 [MP-414]	showed functional activity
0.85	–	CC(C)C[C@@H]1NC(=O)[C@H](C)NC(=O)[C@H](Cc2c[nH]c3ccccc23)NC(=O)[C@H](Cc2ccc(O)cc2)NC(=O)[C@H](CCC(=O)O)NC(=O)[C@](C)(NC(=O)[C@H](Cc2ccccc2)NC(=O)[C@H](CO)NC(=O)[C@@H](NC(=O)[C@H](CO)NC(=O)CNC(=O)[C@H](CO)NC(=O)[C@H](CCCCN=[N+]=[N-])NC(=O)[C@H](CCC(=O)O)NC(=O)[C@H](CCC(=O)O)NC(=O)[C@@H](N)CCC(=O)O)[C@@H](C)O)CCCCCCC=CCCC[C@@](C)(C(N)=O)NC(=O)[C@H](CC(C)C)NC1=O [MP-948, NH2-Glu-Glu-Glu-Lys(N3)-Ser-Gly-Ser-Thr-Ser-Phe-R8*-Glu-Tyr-Trp-Ala-Leu-Leu-S5*-NH2] (H-EEE[Lys(N3)]SGSTSF[R8]EYWALL[S5]-NH2; staple 11-18)	–
0.97	–	CC(=O)N[C@@H](CCCCN=[N+]=[N-])C(=O)NCCC(=O)N[C@@H](CC(C)C)C(=O)N[C@H](C(=O)N[C@@H](Cc1ccccc1)C(=O)N[C@]1(C)CCCCCCC=CCCC[C@@](C)(C(=O)N[C@@H](CCC(=O)O)C(=O)N[C@@H](C)C(=O)N[C@@H](C)C(=O)N[C@@H](C)C(=O)N[C@@H](C)C(=O)N[C@H](C)C(N)=O)NC(=O)[C@H](CC2CCC2)NC(=O)[C@H](CCC(N)=O)NC(=O)[C@H](C)NC(=O)[C@H](Cc2c[nH]c3ccccc23)NC(=O)[C@H](Cc2ccc(O)cc2)NC(=O)[C@H](CCC(=O)O)NC1=O)[C@@H](C)O [MP-834, Ac-Lys(N3)-betaAla-Leu-Thr-Phe-R8*-Glu-Tyr-Trp-Ala-Gln-Cba-S5*-Glu-Ala-Ala-Ala-Ala-DAla-NH2] (Ac-[Lys(N3)][βAla]LTF[R8]EYWAQ[Cba][S5]EAAAA[dA]-NH2; staple 6-13)	–
88	–	CC(=O)N[C@@H](CC(C)C)C(=O)N[C@H](C(=O)N[C@@H](Cc1ccccc1)C(=O)NC(C)(C)C(=O)N[C@@H](CCC(=O)O)C(=O)N[C@@H](Cc1ccc(O)cc1)C(=O)N[C@@H](Cc1c[nH]c2ccccc12)C(=O)N[C@@H](CCC(N)=O)C(=O)N[C@@H](CC(C)C)C(=O)N[C@@H](CC1CCC1)C(=O)NC(C)(C)C(=O)N[C@@H](CO)C(=O)N[C@@H](C)C(=O)N[C@@H](C)C(=O)O)[C@@H](C)O [MP-788, Ac-Leu-Thr-Phe-Aib-Glu-Tyr-Trp-Gln-Leu-Cba-Aib-Ser-Ala-Ala-OH]	–
115	–	CC(=O)N[C@@H](CC(C)C)C(=O)N[C@H](C(=O)N[C@@H](Cc1ccccc1)C(=O)N[C@@H](CCC(=O)O)C(=O)N[C@@H](CCC(=O)O)C(=O)N[C@@H](Cc1ccc(O)cc1)C(=O)N[C@@H](Cc1c[nH]c2ccccc12)C(=O)N[C@@H](C)C(=O)N[C@H](CCC(N)=O)C(=O)N[C@@H](CC(C)C)C(=O)N[C@H](C(=O)N[C@@H](CO)C(N)=O)[C@@H](C)O)[C@@H](C)O [MP-793] (Ac-LTFEEYWA[dQ]LTS-NH2)	–
0.53	–	CC(C)C[C@H]1NC(=O)[C@@H](CCCCN)NC(=O)[C@@H](CCC(=O)O)NC(=O)[C@@H](Cc2ccc(C(F)(F)F)cc2)NC(=O)[C@@H](CC(N)=O)NC(=O)C2(CCCC=CCCCCCC[C@](C)(C(=O)N[C@H](C)C(=O)N[C@H](C)C(=O)N[C@H](C)C(=O)N[C@H](C)C(=O)N[C@H](C)C(=O)N[C@H](C)C(N)=O)NC(=O)[C@@H](CC(C)C)NC1=O)CCCC=CCCC[C@@](C)(N)C(=O)N[C@H](C)C(=O)N[C@H](Cc1c[nH]c3cc(F)ccc13)C(=O)N[C@H](Cc1ccc(O)cc1)C(=O)N2 (some centres unmarked) [MP-231, H-R5*-DAla-DTrp(6-F)-DTyr-B5**-DAsn-DPhe(4-CF3)-DGlu-DLys-DLeu-DLeu-R8*-DAla-DAla-DAla-DAla-DAla-DAla-NH2]	–
